Data: patent US11638737B2, “Food compositions and pharmaceutical compositions containing Filipendula glaberrima extract for lowering blood cholesterol levels and for ameliorating atherosclerosis” (KOREA INSTITUTE OF SCIENCE AND TECHNOLOGY, priority 2019, dated 2023)
Values after ≈ are worked out from the molar mass of the structure shown.

Key:
[1] = target: T1, HMG-CoA reductase (Homo sapiens, UniProt P04035); test: HMG-CoA reductase inhibitory effect (modified Perchellet's assay, absorbance at 340 nm); type: biochemical; conditions: mean ± standard error; values without (μM) mark
T1 construct: purchased Sigma-Aldrich (St. Louis, Mo.)
T1 sequence (P04035 426-888 limits assumed): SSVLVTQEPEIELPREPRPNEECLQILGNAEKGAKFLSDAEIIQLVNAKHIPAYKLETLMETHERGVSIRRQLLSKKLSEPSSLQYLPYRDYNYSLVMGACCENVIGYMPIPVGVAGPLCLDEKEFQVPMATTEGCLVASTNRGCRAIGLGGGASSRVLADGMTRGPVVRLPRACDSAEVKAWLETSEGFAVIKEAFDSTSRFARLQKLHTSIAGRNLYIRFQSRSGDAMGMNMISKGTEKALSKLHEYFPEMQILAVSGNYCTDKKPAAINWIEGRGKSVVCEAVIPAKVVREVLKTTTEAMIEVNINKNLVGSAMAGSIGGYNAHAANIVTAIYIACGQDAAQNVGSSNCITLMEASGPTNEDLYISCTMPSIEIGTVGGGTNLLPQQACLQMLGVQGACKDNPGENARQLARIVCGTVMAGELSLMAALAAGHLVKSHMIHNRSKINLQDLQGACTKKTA
Protocol: Transparent 96-well plates were purchased from SPL Lifesciences (Pocheon). A VERSA Max™ microplate reader from Molecular Devices was used.
The sample for detection was dissolved in DMSO before use.
The activity of HMG-CoA reductase was compared and analyzed by recording the absorbance at 340 nm at 37° C. for 10 minutes using a VERSA Max™ microplate reader. […] The experiment was repeated three times.

[2] = DPPH radical scavenging effect; conditions: samples marked (μM); read-out: SC50 DPPH radical
Excerpt: Data are expressed as an average of measurements conducted in triplicate.

[3] = system: lipid peroxide formation in liver homogenate; test: Lipid peroxide production inhibitory effect (LPO) in rat liver homogenate; type: biochemical, Sprague-Dawley rats; conditions: for IC50: samples marked (μM)
Protocol: The lipid peroxide production inhibitory effect (LPO) of the extract and the isolated compounds were tested. Lipid peroxide is a substance produced by peroxidation of lipids through various oxidation reactions. Reactive oxygen species, free radicals and the like oxidize phospholipids of cell membranes containing great amounts of unsaturated fatty acids, producing lipid peroxides in the cell membranes. When the lipid peroxides are accumulated in the cell membranes, the fluidity and functionality of the cell membrane are deteriorated, resulting in local disorders in tissues such as inhibition of cell functions and changes in cell structures.
Therefore, the effects of inhibiting lipid peroxide production by the Filipendula glaberrima leaf and stem extracts and the isolated compounds were measured as follows. The animals used in the experiment were male Sprague-Dawley rats, and only water was supplied for 24 hours before the experiment. […] The experimental animals were subjected to respiratory anesthesia with isoflurane, and dissected and a 0.15 M ice-cold KCl solution was perfused through the liver portal vein to remove blood from the liver and extract the liver. […] 50 mM Tris-HCl buffer (pH 7.5) was added to 300 μl of a liver homogenate (11 mg protein/ml), 10 μM FeSO4, 10 μl of a test drug and 0.4 mM ascorbic acid to adjust the total volume to 1 ml, and then the resulting mixture was incubated at 37° C. for 30 minutes.

[4] = Xanthine/xanthine oxidase-induced superoxide anion scavenging effect; type: biochemical; conditions: samples marked (μM); read-out: SC50 Superoxide anion radical (O2−)
Protocol: Specifically, 0.1 mM xanthine, 0.1 mM EDTA, 50 μg/ml of bovine serum albumin (BSA), […] nitroblue tetrazolium (NBT), a 40 mM Na2CO3 solution, a test sample solution diluted at each concentration and a solution with a final volume of 200 μl containing 1.4×10^−3 unit XOD were mixed and reacted at 25° C. for 20 minutes.

| SMILES | IC50 [1] [µM] | IC50 [2] [µM] | IC50 [3] [µM] | IC50 [4] [µM] | IC50 LPO ([3]; rat liver homogenate, FeSO4/ascorbic acid, TBA, 535 nm) [µg/mL] |
| --- | --- | --- | --- | --- | --- |
| COC(=O)c1cc(O)c(O)c(O)c1Oc1cc2c(c(O)c1O)-c1c(cc(O)c(O)c1O)C(=O)O[C@@H]1C(COC2=O)OC(O)C(OC(=O)c2cc(O)c(O)c(O)c2)C1OC(=O)c1cc(O)c(O)c(O)c1 (some centres unmarked) [Compound 2] | 1.46 ± 0.22 | 3.62 ± 0.57 | 7.99 ± 0.05 | 41.1 ± 2.24 | – |
| Oc1ccc(C=Cc2cc(O)cc(O)c2)cc1 [Resveratrol] | – | – | 35.64 ± 0.01 | – | – |
| O=C1O[C@H]([C@@H](O)CO)C(O)=C1O [Vit. C, ascorbic acid] | – | 29.3 ± 2.49 | – | > 50 | – |

The next lines start with the values.

| IC50 [1] [µM] | IC50 [2] [µM] | IC50 [3] [µM] | IC50 [4] [µM] | IC50 LPO ([3]; rat liver homogenate, FeSO4/ascorbic acid, TBA, 535 nm) [µg/mL] | SMILES |
| --- | --- | --- | --- | --- | --- |
| 175 ± 2.2 | 47.88 ± 0.01 | 89 ± 3.69 | – | – | C[C@@H]1CC[C@]2(C(=O)O[C@@H]3OC(COC(=O)c4cc(O)c(O)c(O)c4)[C@@H](O)[C@H](O)C3O)CC[C@]3(C)C(=CC[C@@H]4[C@@]5(C)C[C@@H](O)[C@H](O)C(C)(C)[C@@H]5CC[C@]43C)[C@@H]2[C@]1(C)O (some centres unmarked) [Compound 1] |
| – | 19 ± 2.25 | 29.6 ± 1.32 | > 50 | 29.57 ± 1.32 (≈ 97.8 µM) | O=c1c(O)c(-c2ccc(O)c(O)c2)oc2cc(O)cc(O)c12 [Quercetin] |
| – | 47.5 ± 0.41 | > 50 | > 50 | – | Cc1c(C)c2c(c(C)c1O)CCC(C)(C(=O)O)O2 (centres unmarked) [Trolox] |
